{"source": "patent US11401264B2", "about": "“Heterocyclic compound” (Orizuru Therapeutics, Inc., priority 2018, dated 2022)", "tested_on": "cardiomyocytes from human iPS cell lines 409B2", "assay": "Experimental Example 4: membrane potential analysis (FluoVolt), beats per minute", "type": "cell-based", "settings": "treated from 25th day, measured on 28th day; n = 3; DMSO control 70.7", "method": "For analysis of electrophysiological function of cardiomyocytes, humans iPS cell lines 409B2 (prepared from episomal vector (pCXLE-hOCT3/4-shp53-F, pCXLE-hSK, pCXLE-hUL) using HDF1388 purchased from Cell Applications, Inc (reference literature; Okita et al., Nat Methods. 8(5):409-12. (2011))) were used.\nThe maintenance culture of the above-mentioned iPS cell lines was carried out by a conventional method (Takahashi K, et al. Cell. 131: 861-72, 2007 and Nakagawa M, et al. Nat Biotechnol. 26: 101-6, 2008).\nFor differentiation induction into cardiomyocytes, the iPS cell lines were treated with CTK solution (ReproCELL) for 2 minutes, the solution was removed, and then the iPS cell lines were treated with Accumax (Innovative Cell Technologies) for 5 minutes, and the cells were dissociated into the single cell by pipetting. The cells were collected by centrifugation (1,000 rpm, 5 min), and seeded on low attachment 96 well dish (Corning) by 5000 cells/70 μL/well, and cultured in a medium prepared by adding 1% L-glutamine, transferrin 150 μg/mL, ascorbic acid 50 μg/mL (Sigma), monothioglycerol 4×10^−4 M, 10 μM Rock inhibitor (Y-27632), 2 ng/mL BMP4 (R&D) and 0.5% Matrigel (Growth Factor Reduced) to StemPro-34 SFM (ThermoFisher) at 37° C., under 5% oxygen condition to form embryoid bodies (0 day). […]", "data": [{"smiles": "O=C1c2ccc(N3CCOCC3)cc2CN1c1ccc2[nH]c(-c3ccc(Br)cc3)nc2c1", "note": "[Example 8, 2-(2-(4-bromophenyl)-1H-benzimidazol-5-yl)-5-(morpholin-4-yl)isoindolin-1-one]", "values": [{"measurement": "beats (mean)", "result": 32.0, "unit": "beats per minute"}]}]}
